Legend:
[1] = system: human prostate cancer cell line, PC3; assay: Trypan blue cell viability and viable cell count, PC3; format: cell-based; conditions: vardenafil 5 μM, EGCG 10 μM added after 2 hours, 96 hours
Experimental: A human prostate cancer cell line, PC3, was subcultured in an RPMI 1640 medium supplemented with 10% fetal calf serum (FCS) at 37° C. under vapor-saturated 5% CO2 conditions. The cells were cultured in the logarithmic growth phase. The RPMI 1640 medium used in the culture was prepared by suspending 10.4 g of an RPMI 1640 medium, 2.38 g of HEPES, 0.5 vial of Penicillin G Potassium for Injection 200000 Unit, 0.1 vial of Streptomycin Sulfate for Injection 1 g, and 2.0 g of NaHCO3 in 1 L of ultrapure water, followed by filter sterilization. Subsequently, the RPMI 1640 medium was supplemented with fetal calf serum (FCS) and was used in cell culture. A trypan blue staining solution was prepared by suspending trypan blue in PBS at a concentration of 1% and was used in investigation of the anti-cancer activity of a combination of EGCG and vardenafil by trypan blue assay. The PBS used was prepared by dissolving 8.0 g of NaCl, 0.2 g of KCl, 1.15 g of Na2HPO4, and 0.2 g of KH2PO4 in 1 L of ultrapure water, followed by autoclave sterilization. […] After 10 minutes, the number of the cells was counted with a hemocytometer. Unstained cells were deemed as viable cells, and the cell viability was determined as a ratio of the number of unstained cells in trypan blue staining to the total number of cells. […]

[2] = system: acute myeloid leukemia cell line, HL60; assay: Apoptosis induction by Annexin V PI double staining, HL60; format: cell-based, human; conditions: vardenafil 5 μM, EGCG 5 μM, 96 hours
Experimental: A propidium iodide (PI) staining solution was prepared by suspending PI (Sigma Corporation) in PBS at a concentration of 50 μg/mL and was used in investigation of the anti-cancer activity of a combination of EGCG and vardenafil by Annexin V PI double staining. The PBS used was prepared by dissolving 8.0 g of NaCl, 0.2 g of KCl, 1.15 g of Na2HPO4, and 0.2 g of KH2PO4 in 1 L of ultrapure water, followed by autoclave sterilization. The Annexin V Binding Buffer used was prepared with 10 mM HEPES, 140 mM NaCl, and 2.5 mM CaCl2 (Wako Pure Chemical Industries, Ltd.) to be pH 7.4, followed by filter sterilization.
Cell lines, U266 and HL60, adjusted to be 5×10^4 cells/mL (U266) and 1×10^4 cells/mL (HL60), respectively, in an RPMI 1640 medium supplemented with 1% FCS were seeded in a 96-well plate. […]
The plate was returned to the incubator immediately after the addition of EGCG, followed by culturing for 96 hours. […] The supernatant was removed, and the cells were suspended in an Annexin V Binding uffer, and the number of the cells was counted with a hemocytometer. […] Subsequently, 400 μL of an Annexin V Binding Buffer was added thereto from above, and the cells were counted with a flow cytometer, FACS Caliber (Becton, Dickinson and Company). After compensation, the Annexin V Alexa Fluor 488 Conjugate was measured at FL 1, and the cells deemed to be positive were determined as apoptotic cells. […]

(−)-epigallocatechin-3-O-gallate [EGCG]
cell viability (cell-killing activity) [1]: any cytotoxicity was not observed | apoptosis-inducing activity (apoptotic cell ratio) ([2]; Annexin V PI double staining): apoptosis was induced | apoptosis-inducing activity under treatment with anti-67LR antibody ([2]; anti-67LR antibody MLuc5 20 μg/mL): completely cancelled

— patent US20160000750A1, “COMBINATION OF EGCG OR METHYLATED EGCG AND A PDE INHIBITOR” (KYUSHU UNIVERSITY, NATIONAL UNIVERSITY CORPORATION, priority 2010, published 2016)
